Source: PMC5814047, “Peptidic inhibitors of insulin-degrading enzyme with potential for dermatological applications discovered via phage display” (PLoS ONE, 2018)
Several values for one entry are separate records, joined by “and”; a condition that tells them apart may be missing. Equal values may be shown once. Entries after “also recorded” stand apart in the source; their conditions may differ. Bridge positions count the residues as written; N and C are the ends. Peptide text beside a SMILES is read from it.

Tests used:
[1] = tested on: primary murine skin fibroblasts; experiment: Cell proliferation (CellTiter 96 AQueous); type: cell-based; settings: for Cell count, Mean / Cell count: P12-3A 100 uM, 100nM insulin added, cells per well; for Cell count, Mean: N 6; for Cell count: individual replicates
Protocol: (§1) Insulin promotes wound healing and overall skin health by affecting a number of processes, including cell proliferation, cell migration, and the production and secretion of ECM components, particularly type I collagen. We therefore assessed the ability of P12-3A to influence these processes in cultured skin fibroblasts and keratinocytes. To that end, primary mouse skin fibroblasts were grown for 4 d in multiple concentrations of insulin in the presence or absence of P12-3A, and insulin concentration over time was monitored by ELISA. […] Finally, the effects of P12-3A on collagen production in were assessed at both the transcriptional and the posttranslational level in confluent monolayers of fibroblasts. After 4 d of treatment with P12-3A (100 μM), mRNA levels for the major form of collagen, alpha-1 type I collagen (COL1A1), were quantified by RT-PCR and found to be increased to ~2.6 times the levels of untreated cells (Fig 4C). To assess overall levels of collagen production and secretion, we quantified levels of hydroxyproline, a modified amino acid present almost exclusively in collagen proteins. […] Western blotting also confirmed that mature, cell-associated collagen levels were increased in the presence of P12-3A (Fig 4E).
(§2) Fig 4 Effects of P12-3A on cultured skin cells. A, Insulin concentrations as a function of time in logarithmically growing primary murine skin fibroblasts in the absence or presence of P12-3A (100 μM). […] Data are mean ± SEM of 4 independent replications. *P<0.05, **P<0.01. B, Proliferation of cells in the absence or presence of P12-3A (100 μM). Data are mean ± SEM of 6 independent replications. […] C,D,E, P12-3A (100 μM) potentiates insulin-induced collagen production in skin fibroblasts. Collagen production was assessed by COL1A1 mRNA levels (C), levels of hydroxyproline secreted into the medium (D), and cell-associated mature alpha-1 type I collagen levels detected by Western blotting (E). Data are mean ± SD of 4 independent replications. *P<0.05, **P<0.01. […] Migration of HaCaT cells 48 h after induction of a scratch wound in the presence of the indicated quantities of insulin and/or P12-3A (100 μM). Data are mean ± SEM of 6 independent replications. *P<0.05, **P<0.01.
Primary murine skin fibroblasts cells (1 x 10^5/well) were plated in 96-well plates, using separate plates for each timepoint and endpoint. Cell proliferation was quantified using the CellTiter 96® AQueous Non-Radioactive Cell Proliferation Assay (Promega Corp., Madison, WI, USA) according to manufacturer’s recommendations.

[2] = tested on: multiple matrix-metalloproteases (MMPs); experiment: Matrix Metalloproteinase (MMP) Inhibitor Profiling Kit, Fluorometric RED; type: biochemical; set-up: % activity relative to DMSO-only controls, single runs / % activity relative to DMSO-only controls, Mean: concentration or dose not given beside the values; settings: for % activity relative to DMSO-only controls, single runs: each run mean of duplicates
Protocol: IDE activity was quantified by monitoring the degradation of Mca-[…](Dnp) (FRET1, 5 μM), fluoresceinated and biotinylated amyloid ß-protein (FAßB; 500 nM) or recombinant human insulin (50 nM) in PBS supplemented with 0.05% BSA. FRET1 degradation was measured by changes in fluorescence (λex = 340 nm, λem = 420 nm); FAßB degradation was monitored by fluorescence polarization (λex = 488 nm, λem = 525 nm), as described; and insulin degradation was quantified by ELISA. In vitro activity assays incorporated recombinant human IDE (1 nM) purified from bacteria. For quantitation of insulin degradation in primary murine skin fibroblasts, cells (1 x 10^5/well) were plated in 96-well plates and maintained in DMEM supplemented with 10% fetal bovine serum (FBS), 2mM glutamine, penicillin and streptomycin. After addition of insulin (10 nM or 100 nM), samples of conditioned medium were removed daily and quickly frozen, then insulin levels were quantified in parallel by ELISA according to manufacturer’s recommendations (Crystal Chem, Downers Grove, IL, USA). Assessment of the activity of P12-3A against a variety of matrix-metalloproteases was conducted using the Matrix Metalloproteinase (MMP) Inhibitor Profiling Kit, Fluorometric RED (Enzo Life Sciences, Inc., Farmingdale, NY, USA) according to manufacturer’s recommendations using the broad-spectrum MMP inhibitor, NNGH, as a positive control.
Supplementary file pone.0193101.s004.tif: S4 Fig Selectivity of P12-3A for IDE vis-à-vis other proteases. Activity of P12-3A (100 μM) against (A) multiple matrix-metalloproteases (MMPs) and (B) multiple peptidases of different protease classes. […] Data are mean ± SD, n = 8–16 per group. P<0.05 by 2-tailed Student’s t-test. […] See Materials and Methods for details. NEP, neprilysin; mCatD, murine cathepsin D; hCatD, human cathepsin D. (TIF) Click here for additional data file.

[3] = tested on: hydroxyproline secreted by primary murine skin fibroblasts; experiment: Hydroxyproline secretion into medium; type: cell-based
Protocol: as §1, §2
For quantitation of hydroxyproline secretion by primary murine skin fibroblasts, cells (1 x 10^5/well) were plated in 24-well plates DMEM supplemented with 10% FBS, 2mM glutamine, penicillin, streptomycin and 100 nM insulin, in the absence or presence of 100 μM P12-3A. After incubation for 4 days, the conditioned medium was removed, centrifuged at 1000 x g for 10 min to remove cellular debris, and hydroxyproline levels were quantified using the Hydroxyproline Assay Kit according to manufacturer’s recommendations (Sigma-Aldrich, St. Louis, MO, USA).

% activity relative to DMSO-only controls, Mean ([2]; MMP-1): 87% | % activity relative to DMSO-only controls, Mean ([2]; MMP-2): 101% | % activity relative to DMSO-only controls, Mean ([2]; MMP-3): 93% | % activity relative to DMSO-only controls, Mean ([2]; MMP-8): 114% | % activity relative to DMSO-only controls, Mean ([2]; MMP-9): 96% | % activity relative to DMSO-only controls, Mean ([2]; MMP-12): 89% | % activity relative to DMSO-only controls, Mean ([2]; MMP-13): 97% | % activity relative to DMSO-only controls, Mean ([2]; MMP-14): 117% | % activity relative to DMSO-only controls, Mean ([2]; MMP-19): 92%
SMILES: CC(C)C[C@H](NC(=O)[C@H](CO)NC(=O)[C@@H](N)CCC(N)=O)C(=O)N1CCC[C@H]1C(=O)N[C@@H](Cc1c[nH]c2ccccc12)C(=O)N[C@H]1CSSC[C@@H](C(=O)N[C@H](C(=O)N[C@H](C(N)=O)[C@@H](C)O)C(C)C)NC(=O)[C@H](Cc2c[nH]cn2)NC(=O)[C@@H]2CCCN2C(=O)[C@H](Cc2ccc(O)cc2)NC1=O [P12-3A] (H-QSLPWCYPHCVT-NH2; disulfide 6-10 (inferred))
cell proliferation relative to control cells ([1]; 100 μM P12-3A, 10 nM insulin): modestly increased; also recorded: No significant differences were observed | Cell count, Mean ([1]; t 0 d): 0.15 *100,000 | Cell count ([1]; t 0 d): 0.1682 *100,000 and 0.1108 *100,000 and 0.1565 *100,000 and 0.1271 *100,000 and 0.1836 *100,000 and 0.1526 *100,000 | Cell count, Mean ([1]; t 1 d): 0.28 *100,000 | Cell count ([1]; t 1 d): 0.0908 *100,000 and 0.3439 *100,000 and 0.3368 *100,000 and 0.2676 *100,000 and 0.3256 *100,000 and 0.3423 *100,000 | Cell count, Mean ([1]; t 2 d): 0.63 *100,000 | Cell count ([1]; t 2 d): 0.4380 *100,000 and 0.6462 *100,000 and 0.8125 *100,000 and 0.5756 *100,000 and 0.7135 *100,000 and 0.6125 *100,000 | Cell count, Mean ([1]; t 3 d): 1.33 *100,000 | Cell count ([1]; t 3 d): 1.4714 *100,000 and 1.6270 *100,000 and 1.4135 *100,000 and 1.4988 *100,000 and 1.1573 *100,000 and 0.8293 *100,000 | Cell count, Mean ([1]; t 4 d): 2.46 *100,000 | Cell count ([1]; t 4 d): 3.2440 *100,000 and 1.8308 *100,000 and 1.5133 *100,000 and 1.9615 *100,000 and 2.9117 *100,000 and 3.3184 *100,000 | % activity relative to DMSO-only controls, single runs ([2]; MMP-1): 105.8321% and 102.1980% and 83.6377% and 95.1040% and 96.8615% and 66.9344% and 67.7846% and 75.7623% | % activity relative to DMSO-only controls, single runs ([2]; MMP-2): 134.1641% and 93.5356% and 119.9423% and 88.3713% and 112.6968% and 77.2842% and 100.8622% and 77.2868% | % activity relative to DMSO-only controls, single runs ([2]; MMP-3): 94.6432% and 93.2955% and 89.9170% and 91.8916% and 91.6457% and 97.0044% and 92.2721% and 90.5895% | % activity relative to DMSO-only controls, single runs ([2]; MMP-8): 99.7304% and 123.9354% and 116.1961% and 104.6766% and 117.7573% and 98.6189% and 113.4567% and 134.2719% | % activity relative to DMSO-only controls, single runs ([2]; MMP-9): 99.3059% and 91.4690% and 98.9883% and 93.1451% and 94.2109% and 106.2066% and 100.0306% and 85.1586% | % activity relative to DMSO-only controls, single runs ([2]; MMP-12): 81.7387% and 84.5842% and 96.0954% and 81.6283% and 94.7460% and 96.1245% and 93.1866% and 82.8317% | % activity relative to DMSO-only controls, single runs ([2]; MMP-13): 85.9593% and 124.8564% and 91.0861% and 131.0115% and 78.1511% and 84.2743% and 87.8510% and 91.4553% | % activity relative to DMSO-only controls, single runs ([2]; MMP-14): 110.7407% and 115.7751% and 123.1998% and 129.5171% and 110.1580% and 106.8971% and 114.7013% and 125.4828% | % activity relative to DMSO-only controls, single runs ([2]; MMP-19): 98.6000% and 87.1925% and 92.0753% and 96.2890% and 86.4215% and 92.6495% and 89.4846% and 96.8071% | hydroxyproline levels secreted into the medium ([3]; 100 μM P12-3A, 100 nM insulin, 4 days): ~ 4.6 times that secreted by untreated cells | Hydroxyproline, Mean ([3]; from standard curve, N 4): 0.989 ug/well | Hydroxyproline ([3]; from standard curve, individual replicates): 0.7793 ug/well and 1.026 ug/well and 0.6312 ug/well and 1.309 ug/well | Hydroxyproline, Normalized, Mean ([3]; normalized to control mean (1.000), N 4): 4.585 | Hydroxyproline, Normalized ([3]; normalized to control mean (1.000), individual replicates): 3.613 and 4.758 and 2.926 and 6.069 | Hydroxyproline quantification, OD560 ([3]; raw OD560, individual replicates): 0.849 and 1.1137 and 0.6903 and 1.4165
